From patent publication US5506102A (priority 1993, dated 1996)

Tests used:
PR-B = target: T1, PR-B (Homo sapiens, UniProt P06401); test: PR-B regulation of TAT promoter; format: cell-based; parameters: expressed in transfected cells; host or cells: CV-1, HepG2 (PRE2 tk-LUC); HeLa, also HepG2 and CV-1 (TAT promoter); details: data not shown
T1 sequence (P06401 1-933): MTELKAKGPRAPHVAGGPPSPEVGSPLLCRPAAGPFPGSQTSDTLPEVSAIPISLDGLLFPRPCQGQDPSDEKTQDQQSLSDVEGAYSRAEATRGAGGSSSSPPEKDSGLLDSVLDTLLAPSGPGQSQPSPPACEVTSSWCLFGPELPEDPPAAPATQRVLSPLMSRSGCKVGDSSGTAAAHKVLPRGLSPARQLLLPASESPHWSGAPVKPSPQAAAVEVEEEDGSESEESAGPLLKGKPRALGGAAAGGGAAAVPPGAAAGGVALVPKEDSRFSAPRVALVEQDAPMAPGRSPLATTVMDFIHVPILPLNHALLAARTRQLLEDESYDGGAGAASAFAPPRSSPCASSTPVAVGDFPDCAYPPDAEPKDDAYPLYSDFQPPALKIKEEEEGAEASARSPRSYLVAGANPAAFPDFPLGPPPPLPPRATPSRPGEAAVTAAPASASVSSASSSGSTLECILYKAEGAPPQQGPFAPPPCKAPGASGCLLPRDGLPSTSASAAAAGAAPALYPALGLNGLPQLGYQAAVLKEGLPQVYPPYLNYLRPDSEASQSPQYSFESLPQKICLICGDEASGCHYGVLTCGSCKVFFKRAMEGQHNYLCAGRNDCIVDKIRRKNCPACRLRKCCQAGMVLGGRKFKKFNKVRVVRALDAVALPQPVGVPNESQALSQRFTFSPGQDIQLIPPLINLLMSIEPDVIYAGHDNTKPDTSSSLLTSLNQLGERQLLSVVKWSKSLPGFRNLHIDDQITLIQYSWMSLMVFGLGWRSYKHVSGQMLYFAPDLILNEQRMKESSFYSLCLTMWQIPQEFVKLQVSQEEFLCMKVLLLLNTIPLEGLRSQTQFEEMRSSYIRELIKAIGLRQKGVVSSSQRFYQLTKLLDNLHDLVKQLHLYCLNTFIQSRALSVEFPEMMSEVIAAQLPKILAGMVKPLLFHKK
Procedure: FIGS. 4A-4B are a series of graphs showing CV-1 ([…]) or HepG2 (FIG. 4B) cells that were transiently transfected with either […] of phPR-B or phPR-A alone, or phPR-B in the presence of increasing concentrations of phPR-A, together with 5 µg/ml of the PRE2 tk-LUC reporter and 5 µg/ml of pCH110 as an internal control. HeLa cells (FIG. 4C) were transfected with either phPR-B or phPR-A together with 5 µg/ml of the pTAT2950 reporter and 5 µg/ml of pCH110 as an internal control. […] The relative luciferase activity is calculated by dividing the normalized luciferase value at a given point by that obtained in the absence of transfected receptor or ligand. The data shown represent the mean +/- average deviation from the mean of triplicate estimations;
The 2.9 Kb fragment resulting from the digestion of the pTAT-CAT plasmid, and the 6.7 Kb fragment, containing the luciferase gene and the backbone resulting from MMTV-LUC digestion products, were ligated to create the plasmid TAT2950-LUC.
Cells were seeded in 12-well, 96-well or 10 cm tissue culture plates. […] 20 μg of DNA/ml of transfection buffer were used in each transfection reaction. […]

human vitamin D receptor = test: VDR transcriptional activity on VDRE2 tk-LUC with PR-A, CV-1 cells; format: cell-based; details: absence or presence of progesterone, FIG. 7
Source text: The data shown represent the mean value +/- the average deviation from the mean of triplicate determinations;
To analyze the specificity of PR-A action, we examined its ability to affect other receptor-dependent transcription systems. For this purpose, phPR-A was cotransfected with a vector expressing the vitamin D receptor (VDR) and assayed on a VDRE2 tk-LUC reporter (available from Dr. J. Wesley Pike, Ligand Pharmaceuticals, Inc.).

## CC(=O)[C@H]1CC[C@H]2[C@@H]3CCC4=CC(=O)CC[C@]4(C)[C@H]3CC[C@]12C [progesterone]
PR-B; CV-1, PR-B
  TAT promoter response: unresponsive to either receptor subtype
PR-B; HepG2, phPR-B
  TAT promoter response to progesterone: responded to progesterone
Human vitamin D receptor
  effect of PR-A co-expression on hormone-dependent transactivation by VDR: not substantially affected
